Measurements as given in patent US6967196B1, “Sulfonamide compounds and uses thereof” (Bristol-Myers Squibb Company, priority 1999, dated 2005).
Where a name gives a salt, the structure may show the parent alone. Read-outs that look alike come from different tables or passages of the source.

Tested on: amyloid β production in transfected H4 (human neuroglioma) cells stably expressing APP constructs
Experiment: In vitro cell-based assay of inhibitors of amyloid β production (ELISA)
Outline: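 Transfected H4 cells stably expressing wild-type or variant APP were exposed to compounds (initial screen 10-100 μM) for about 16 h. Secreted Aβ in the medium was quantified by sandwich ELISA (C-terminal-specific monoclonal capture, N-terminal-specific polyclonal detection) against an Aβ standard curve; dose-response runs followed for actives.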

[1] = Table B, transfected H4 cells stably expressing APP, approximately 16 hours incubation, amyloid β in medium by ELISA, read-out: ACTIVITY (inhibitory concentration IC50, inhibition of amyloid β production)
[2] = Homo sapiens, 16 h, Table B, transfected H4 cells stably expressing APP, approximately 16 hours incubation, amyloid β in medium by ELISA, read-out: ACTIVITY (inhibitory concentration IC50, inhibition of amyloid β production)
[3] = read-out: ACTIVITY (inhibitory concentration IC50, inhibition of amyloid β production)
[4] = transfected H4 cells stably expressing APP, approximately 16 hours incubation, amyloid β in medium by ELISA, Table B, read-out: ACTIVITY (IC50, inhibition of amyloid β production)

Compound: C[C@H](CC[S+]([O-])CC(=O)O)N(c1cc(Cl)ccc1Cl)S(=O)(=O)c1ccc(Cl)cc1 (some centres unmarked) [Example 182]
- IC50 [1]: 25 to 50 nM

Compound: C[C@H](CCS(=O)(=O)CC(=O)O)N(c1cc(Cl)ccc1Cl)S(=O)(=O)c1ccc(Cl)cc1 [Example 183, (6R)-6-[(2,5-dichlorophenyl)[(4-chlorophenyl)sulfonyl]amino]-3-thioheptanoic Acid, 3,3 Dioxide]
- IC50 [1]: 25 to 50 nM

Compound: C=C(C)C(=O)CCCc1cc(F)ccc1[C@@H](C)N(c1cc(F)ccc1F)S(=O)(=O)c1ccc(Cl)cc1 [Example 207, 4-chloro-N-(2,5-difluorophenyl)-N-{(1R)-1-[4-fluoro-2-(5-methyl-4-oxo-5-hexenyl)phenyl]ethyl}benzenesulfonamide]
- IC50 [2]: 25 to 50 nM

Compound: CCN(CC)C(=O)CCCc1cc(F)ccc1[C@@H](C)N(c1cc(F)ccc1F)S(=O)(=O)c1ccc(Cl)cc1 [Example 223, 4-[2-((1R)-1-{[(4-chlorophenyl)sulfonyl]-2,5-difluoroanilino}ethyl)-5-fluorophenyl]-N,N-diethylbutanamide]
- IC50 [2]: 25 to 50 nM

Compound: O=S(=O)(c1ccc(Cl)cc1)N(Cc1cc(Cl)ccc1OCCCN1CCCCC1)c1ccccc1 [Example 230, 4-Chloro-N-{5-chloro-2-[3-(1-piperidinyl)propoxy]benzyl}-N-phenylbenzenesulfonamide Hydrochloride]
- IC50 [1]: 25 to 50 nM

Compound: O=S(=O)(c1ccc(Cl)cc1)N(Cc1cc(F)ccc1OCCCN1CCCCC1)c1cc(F)ccc1F [Example 231, 4-Chloro-N-(2,5-difluorophenyl)-N-{5-fluoro-2-[3-(1-piperidinyl)propoxy]benzyl}benzenesulfonamide Hydrochloride]
- IC50 [3]: 25 to 50 nM

Compound: Cc1ccc(OCCCN2CCCCC2)c(CN(c2cc(F)ccc2F)S(=O)(=O)c2ccc(Cl)cc2)c1 [Example 232, 4-Chloro-N-(2,5-difluorophenyl)-N-{5-methyl-2-[3-(1-piperidinyl)propoxy]benzyl}benzenesulfonamide hydrochloride]
- IC50 [3]: 25 to 50 nM

Compound: O=S(=O)(c1ccc(Cl)cc1)N(Cc1ncccc1OCCCN1CCCCC1)c1cc(F)ccc1F [Example 233, 4-Chloro-N-(2,5-difluorophenyl)-N-({3-[3-(1-piperidinyl)propoxy]-2-pyridinyl}methyl)benzenesulfonamide Hydrochloride]
- IC50 [3]: 25 to 50 nM

Compound: O=S(=O)(c1ccc(Cl)cc1)N(Cc1ccccc1OCCCN1CCCCC1)c1cccc(Cl)c1 [Example 235, 4-Chloro-N-(3-chlorophenyl)-N-{2-[3-(1-piperidinyl)propoxy]benzyl}benzenesulfonamide Hydrochloride]
- IC50 [3]: 25 to 50 nM

Compound: CC(c1ccccc1OCCCN1CCCCC1)N(c1cc(F)ccc1F)S(=O)(=O)c1ccc(Cl)cc1 (centres unmarked) [Example 236, 4-Chloro-N-(2,5-difluorophenyl)-N-(1-{2-[3-(1-piperidinyl)propoxy]phenyl}ethyl)benzenesulfonamide Hydrochloride]
- IC50 [3]: 25 to 50 nM

Compound: O=S(=O)(c1ccc(Cl)cc1)N(Cc1ccccc1OCCCN1CCCCC1)c1cccc(Br)c1 [Example 237, N-(3-bromophenyl)-4-chloro-N-{2-[3-(1-piperidinyl)propoxy]benzyl}benzenesulfonamide Hydrochloride]
- IC50 [3]: 25 to 50 nM

Compound: CSc1ccccc1N(Cc1ccccc1OCCCN1CCCCC1)S(=O)(=O)c1ccc(Cl)cc1 [Example 238, 4-Chloro-N-[2-(methylsulfanyl)phenyl]-N-{2-[3-(1-piperidinyl)propoxy]benzyl}benzenesulfonamide Hydrochloride]
- IC50 [3]: 25 to 50 nM

Compound: CC(=O)Nc1nc(C)c(S(=O)(=O)N(Cc2ccccc2OCCCN2CCCCC2)c2cc(Cl)ccc2Cl)s1 [Example 259, N-{5-[(2,5-dichloro{2-[3-(1-piperidinyl)propoxy]benzyl}anilino)sulfonyl]-4-methyl-1,3-thiazol-2-yl}acetamide Hydrochloride]
- IC50 [1]: 25 to 50 nM

Compound: O=S(=O)(/C=C/c1ccccc1)N(Cc1ccccc1OCCCN1CCCCC1)c1cc(Cl)ccc1Cl [Example 260, (E)-N-(2,5-dichlorophenyl)-2-phenyl-N-{2-[3-(1-piperidinyl)propoxy]benzyl}ethenesulfonamide hydrochloride]
- IC50 [1]: 25 to 50 nM

Compound: O=S(=O)(Cc1ccccc1)N(Cc1ccccc1OCCCN1CCCCC1)c1cc(Cl)ccc1Cl [Example 261, N-(2,5-dichlorophenyl)(phenyl)-N-{2-[3-(1-piperidinyl)propoxy]benzyl}methanesulfonamide Hydrochloride]
- IC50 [1]: 25 to 50 nM

Compound: O=S1(=O)c2cccc3cccc(c23)N1Cc1ccccc1OCCCN1CCCCC1 [Example 269, 2-{2-[3-(1-piperidinyl)propoxy]benzyl}-2H-naphtho[1,8-cd]isothiazole 1,1-Dioxide Hydrochloride]
- IC50 [4]: 25 to 50 nM

Compound: O=S(=O)(c1ccc(Cl)cc1)N(Cc1ccccc1OCCCN1CCCCC1)C1CCOCC1 [Example 271, 4-Chloro-N-{2-[3-(1-piperidinyl)propoxy]benzyl}-N-tetrahydro-2H-pyran-4-ylbenzenesulfonamide hydrochloride]
- IC50 [4]: 25 to 50 nM

Compound: O=S(=O)(c1ccc(Cl)cc1)N(Cc1ccc2ccccc2c1OCCCN1CCCCC1)c1cc(F)ccc1F [Example 272, 4-Chloro-N-(2,5-difluorophenyl)-N-({1-[3-(1-piperidinyl)propoxy]-2-naphthylmethyl)benzenesulfonamide Hydrochloride]
- IC50 [4]: 25 to 50 nM

Compound: CN1CCCCC1CCOc1ccccc1CN(c1ccccc1)S(=O)(=O)c1ccc(Cl)cc1 (centres unmarked) [Example 276, 4-Chloro-N-{2-[2-(1-methyl-2-piperidinyl)ethoxy]benzyl}-N-phenylbenzenesulfonamide Hydrochloride]
- IC50 [4]: 25 to 50 nM

Compound: CN1CCCC1CCOc1ccccc1CN(c1ccccc1)S(=O)(=O)c1ccc(Cl)cc1 (centres unmarked) [Example 277, 4-Chloro-N-{2-[2-(1-methyl-2-pyrrolidinyl)ethoxy]benzyl}-N-phenylbenzenesulfonamide Hydrochloride]
- IC50 [4]: 25 to 50 nM

Compound: O=S(=O)(c1ccccc1)N(Cc1ccccc1OCCCN1CCC(O)C1)c1ccccc1 (centres unmarked) [Example 279, N-{2-[3-(3-hydroxy-1-pyrrolidinyl)propoxy]benzyl}-N-phenylbenzenesulfonamide Hydrochloride]
- IC50 [4]: 25 to 50 nM

Compound: CC(C)(C)OC(=O)N1CCN(CCCOc2ccccc2CN(c2ccccc2)S(=O)(=O)c2ccc(Cl)cc2)CC1 [Example 288, Tert-butyl 4-{3-[2-({[(4 chlorophenyl)sulfonyl}anilino}methyl)phenoxy]propyl}-1-piperazinecarboxylate]
- IC50 [4]: 25 to 50 nM

Compound: O=S(=O)(c1ccc(Cl)cc1)N(Cc1ccccc1OCCCN1CC=CCC1)c1ccccc1 [Example 289, 4-Chloro-N-{2-[3-(3,6-dihydro-1(2H)pyridinyl)propoxy]benzyl}-N-phenylbenzenesulfonamide Hydrochloride]
- IC50 [4]: 25 to 50 nM

Compound: O=S(=O)(c1ccc(Cl)cc1)N(Cc1ccccc1OCCCN1CCC(Cc2ccccc2)CC1)c1ccccc1 [Example 290, N-{2-[3-(4-benzyl-1-piperidinyl)propoxy]benzyl}-4-chloro-N-phenylbenzenesulfonamide Hydrochloride]
- IC50 [4]: 25 to 50 nM

Compound: O=S(=O)(c1ccc(Cl)cc1)N(Cc1ccccc1OCCCN1CCC1)c1ccccc1 [Example 292, N-{2-[3-(1-azetidinyl)propoxy]benzyl}-4-chloro-N-phenylbenzenesulfonamide Hydrochloride]
- IC50 [4]: 25 to 50 nM

Compound: O=S(=O)(c1ccc(Cl)cc1)N(Cc1ccccc1OCCCNC1CC1)c1ccccc1 [Example 297, 4-Chloro-N-{2-[3-(cyclopropylamino)propoxy]benzyl}-N-phenylbenzenesulfonamide Hydrochloride]
- IC50 [4]: 50 to 100 nM
